23 molecules from US9725449B2, “Tricyclic compounds as anticancer agents” (BRISTOL-MYERS SQUIBB COMPANY, priority 2015, dated 2017) can be followed below.

The test deals with BRD4 (Homo sapiens, UniProt O60885). Kind of test: Time resolved fluorescence resonance energy transfer (TR-FRET) binding assay, bromodomain BRD4. The settings on record: one of the FRET assays described; read-out: FRET BRD4 IC50. In general terms: Time-resolved FRET reads energy transfer from a long-lived donor to a nearby acceptor.
Turning to `COc1ncc(Cl)c2c1c1ncc(-c3c(C)nnn3C)cc1n2[C@H](c1ccccc1)C1CCOCC1` [Example 39, 10-Chloro-5-(dimethyl-1H-1,2,3-triazol-5-yl)-13-methoxy-8-[(S)-oxan-4-yl(phenyl)methyl]-3,8,11-triazatricyclo[7.4.0.0^2,^7]trideca-1(13),2(7),3,5,9,11-hexaene], the concentration for half-maximal inhibition (IC50) was less than 0.01 µM.

With `[2H]C([2H])([2H])c1nnn(C)c1-c1cnc2c3c(OC)ncc(CO)c3n([C@H](c3ccccc3)C3CCOCC3)c2c1` [Example 139, {13-methoxy-5-[4-(^2H3)methyl-1-methyl-1H-1,2,3-triazol-5-yl]-8-[(S)-oxan-4-yl(phenyl)methyl]-3,8,12-triazatricyclo[7.4.0.0^2,^7]trideca-1(9),2,4,6,10,12-hexaen-10-yl}methanol], the 50% inhibitory concentration (IC50) was less than 0.01 µM.

With `[2H]C([2H])([2H])c1nnn(C)c1-c1cnc2c3ccc(-c4c(C([2H])([2H])[2H])nnn4C)nc3n([C@@H](c3ccccc3)C3CCOCC3)c2c1` [Example 165, 5,11-Bis[4-(^2H3)methyl-1-methyl-1H-1,2,3-triazol-5-yl]-8-[(R)-oxan-4-yl(phenyl)methyl]-3,8,10-triazatricyclo[7.4.0.0^2,^7]trideca-1(9),2(7),3,5,10,12-hexaene], the half-inhibitory concentration (IC50) is less than 0.01 µM.

Turning to `[2H]C([2H])([2H])c1nnn(C)c1-c1cnc2c3ccc(-c4c(C([2H])([2H])[2H])nnn4C)nc3n(C(c3ccccc3)C3CCC(F)(F)CC3)c2c1` (centres unmarked) [Example 260, 8-[(4,4-Difluorocyclohexyl)(phenyl)methyl]-5,11-bis[4-(^2H3)methyl-1-methyl-H-1,2,3-triazol-5-yl]-3,8,10-triazatricyclo[7.4.0.0^2,^7]trideca-1(13),2(7),3,5,9,11-hexaene], the half-inhibitory concentration (IC50) is less than 0.01 µM.

Take `Cc1noc(C)c1-c1cnc2c3ccc(N4CCS(=O)(=O)CC4)nc3n([C@H](c3ccccc3)C3CCOCC3)c2c1` [Example 209, 4-[5-(Dimethyl-1,2-oxazol-4-yl)-8-[(S)-oxan-4-yl(phenyl)methyl]-3,8,10-triazatricyclo[7.4.0.0^2,^7]trideca-1(9),2(7),3,5,10,12-hexaen-11-yl]-1λ^6,4-thiomorpholine-1,1-dione]: the half-maximal inhibitory concentration (IC50) is less than 0.01 µM.

With `COc1ccc2c3ncc(-c4c(C)nnn4C)cc3n(C(c3cccc(F)c3)C3CCOCC3)c2n1` (racemic) [Example 16, 5-(Dimethyl-1H-1,2,3-triazol-5-yl)-8-[(3-fluorophenyl)(oxan-4-yl)methyl]-11-methoxy-3,8,10-triazatricyclo[7.4.0.0^2,^7]trideca-1(13),2(7),3,5,9,11-hexaene], the 50% inhibitory concentration (IC50) is less than 0.01 µM.

`COc1nccc2c3ncc(-c4c(C)nnn4C)cc3n(C(c3cccc(F)c3F)C3CCOCC3)c12` (single isomer, unassigned) [Example 23, 8-[(2,3-Difluorophenyl)(oxan-4-yl)methyl]-5-(dimethyl-1H-1,2,3-triazol-5-yl)-10-methoxy-3,8,11-triazatricyclo[7.4.0.0^2,^7]trideca-1(13),2(7),3,5,9,11-hexaene]: the IC50 was less than 1.5 µM.

Regarding `[2H]C([2H])([2H])c1nnn(C)c1-c1cnc2c3cc(C(C)(C)O)cnc3n([C@H](c3ccccc3)C3CCOCC3)c2c1` [Example 349, 2-{5-[4-(^2H3)Methyl-1-methyl-1H-1,2,3-triazol-5-yl]-8-[(S)-oxan-4-yl(phenyl)methyl]-3,8,10-triazatricyclo[7.4.0.0^2,^7]trideca-1(13),2(7),3,5,9,11-hexaen-12-yl}propan-2-ol], the half-inhibitory concentration (IC50) is less than 0.001 µM.

With `[2H]C([2H])([2H])c1nnn(C)c1-c1cnc2c3cnc(Cl)cc3n([C@H](c3ncccc3F)C3CCOCC3)c2c1` (stereo in doubt) [Example 314, 11-Chloro-8-[(3-fluoropyridin-2-yl)(oxan-4-yl)methyl]-5-[4-(^2H3)methyl-1-methyl-1H-1,2,3-triazol-5-yl]-3,8,12-triazatricyclo[7.4.0.0^2,^7]trideca-1(9),2(7),3,5,10,12-hexaene], the IC50 was less than 0.01 µM.

For the molecule `C=C(C)c1ccc2c3ncc(-c4c(C)nnn4C)cc3n([C@H](c3ccccc3)C3CCOCC3)c2n1` [Example 161, 5-(Dimethyl-1H-1,2,3-triazol-5-yl)-8-[(S)-oxan-4-yl(phenyl)methyl]-11-(prop-1-en-2-yl)-3,8,10-triazatricyclo[7.4.0.0^2,^7]trideca-1(9),2(7),3,5,10,12-hexaene], the IC50 was less than 0.01 µM.

For the molecule `[2H]C([2H])([2H])c1nnn(C)c1-c1cnc2c3c(NCC(F)(F)F)cncc3n(C(c3ncccc3F)C3CCOCC3)c2c1` (centres unmarked) [Example 304, 8-[(3-Fluoropyridin-2-yl)(oxan-4-yl)methyl]-5-[4-(^2H3)methyl-1-methyl-1H-1,2,3-triazol-5-yl]-N-(2,2,2-trifluoroethyl)-3,8,11-triazatricyclo[7.4.0.0^2,^7]trideca-1(9),2(7),3,5,10,12-hexaen-13-amine], the IC50 was less than 0.01 µM.

In the case of `Cc1nnn(C)c1-c1cnc2c3ccc(-c4c(C)nnn4C)nc3n([C@@H](c3ccccc3)C3CCOCC3)c2c1` [Example 164, 5,11-Bis(dimethyl-1H-1,2,3-triazol-5-yl)-8-[(R)-oxan-4-yl(phenyl)methyl]-3,8,10-triazatricyclo[7.4.0.0^2,^7]trideca-1(9),2(7),3,5,10,12-hexaene], the half-inhibitory concentration (IC50) was less than 0.01 µM.

In the case of `COc1ncc(S(=O)(=O)CC2(O)COC2)c2c1c1ncc(-c3c(C)nnn3C)cc1n2[C@H](c1ccccc1)C1CCOCC1` [Example 106, 3-({[5-(Dimethyl-1H-1,2,3-triazol-5-yl)-13-methoxy-8-[(S)-oxan-4-yl(phenyl)methyl]-3,8,12-triazatricyclo[7.4.0.0^2,^7]trideca-1(13),2(7),3,5,9,11-hexaen-10-yl]sulfonyl}methyl)oxetan-3-ol], the half-inhibitory concentration (IC50) was less than 0.01 µM.

Consider “2-{11-Chloro-5-[4-(^2H3)methyl-1-methyl-1H-1,2,3-triazol-5-yl]-8-[(S)-oxan-4-yl(phenyl)methyl]-3,8,12-triazatricyclo[7.4.0.0^2,^7]trideca-1(13),2(7),3,5,9,11-hexaen-13-yl}propan-2-ol [Example 293]”, for which the IC50 is less than 0.01 µM.

Consider `COc1nccc2c3ncc(-c4c(C)nnn4C)cc3n(C(c3cccc(F)c3)C3CCOCC3)c12` (single isomer, unassigned) [Example 21, 5-(Dimethyl-1H-1,2,3-triazol-5-yl)-8-[(3-fluorophenyl)(oxan-4-yl)methyl]-10-methoxy-3,8,11-triazatricyclo[7.4.0.0^2,^7]trideca-1(13),2(7),3,5,9,11-hexaene], for which the concentration for half-maximal inhibition (IC50) was less than 1.5 µM.

For the molecule `CC(=O)c1ccc(-c2ccc3c4ncc(-c5c(C)nnn5C)cc4n([C@H](c4ccccc4)C4CCOCC4)c3n2)s1` [Example 162, 1-{5-[5-(Dimethyl-1H-1,2,3-triazol-5-yl)-8-[(S)-oxan-4-yl(phenyl)methyl]-3,8,10-triazatricyclo[7.4.0.0^2,^7]trideca-1(9),2(7),3,5,10,12-hexaen-11-yl]thiophen-2-yl}ethan-1-one], the half-inhibitory concentration (IC50) is less than 0.01 µM.

With `COc1ccc2c3ncc(-c4c(C)nnn4C)cc3n(C(c3cccc(F)c3F)C3CCOCC3)c2n1` (racemic) [Example 17, 8-[(2,3-Difluorophenyl)(oxan-4-yl)methyl]-5-(dimethyl-1H-1,2,3-triazol-5-yl)-11-methoxy-3,8,10-triazatricyclo[7.4.0.0^2,^7]trideca-1(13),2(7),3,5,9,11-hexaene], the half-inhibitory concentration (IC50) was less than 0.01 µM.

`[2H]C([2H])([2H])c1nnn(C)c1-c1cnc2c3ccc(NCCc4nnn[nH]4)nc3n([C@H](c3ccccc3)C3CCOCC3)c2c1` [Example 295, 5-[4-(^2H3)Methyl-1-methyl-1H-1,2,3-triazol-5-yl]-8-[(S)-oxan-4-yl(phenyl)methyl]-N-[2-(1H-1,2,3,4-tetrazol-5-yl)ethyl]-3,8,10-triazatricyclo[7.4.0.0^2,^7]trideca-1(9),2(7),3,5,10,12-hexaen-11-amine]: the half-maximal inhibitory concentration (IC50) was less than 0.001 µM.

Turning to “2-{8-[(3-Fluoropyridin-2-yl)(oxan-4-yl)methyl]-11-[4-(^2H3)methyl-1-methyl-1H-1,2,3-triazol-5-yl]-3,8,10-triazatricyclo[7.4.0.0^2,^7]trideca-1(9),2,4,6,10,12-hexaen-5-yl}propan-2-ol [Example 362]”, the concentration for half-maximal inhibition (IC50) was less than 0.01 µM.

`[2H]C([2H])([2H])c1nnn(C)c1-c1cnc2c3c(NCC(F)(F)F)ncc(S(C)(=O)=O)c3n([C@H](c3ccccc3)C3CCOCC3)c2c1` [Example 277, 10-Methanesulfonyl-5-[4-(^2H3)methyl-1-methyl-1H-1,2,3-triazol-5-yl]-8-[(S)-oxan-4-yl(phenyl)methyl]-N-(2,2,2-trifluoroethyl)-3,8,12-triazatricyclo[7.4.0.0^2,^7]trideca-1(13),2(7),3,5,9,11-hexaen-13-amine]: the half-maximal inhibitory concentration (IC50) was less than 0.001 µM.

For `[2H]C([2H])([2H])c1nnn(C)c1-c1cnc2c3cnc(C(C)(C)O)cc3n(C(CCC)c3ncccc3F)c2c1` (centres unmarked) [Example 360, 2-{8-[1-(3-Fluoropyridin-2-yl)butyl]-5-[4-(^2H3)methyl-1-methyl-1H-1,2,3-triazol-5-yl]-3,8,12-triazatricyclo[7.4.0.0^2,^7]trideca-1(13),2(7),3,5,9,11-hexaen-11-yl}propan-2-ol], the half-inhibitory concentration (IC50) was less than 0.01 µM.

Regarding `[2H]C([2H])([2H])c1nnn(C)c1-c1cnc2c3c(OC)nc(C(C)=O)cc3n([C@H](c3ncccc3F)C3CCOCC3)c2c1` [Example 308, 1-{8-[(S)-(3-Fluoropyridin-2-yl)(oxan-4-yl)methyl]-13-methoxy-5-[4-(^2H3)methyl-1-methyl-1H-1,2,3-triazol-5-yl]-3,8,12-triazatricyclo[7.4.0.0^2,^7]trideca-1(9),2(7),3,5,10,12-hexaen-11-yl}ethan-1-one], the IC50 is less than 0.01 µM.

For the molecule `Cc1nnn(C)c1-c1cnc2c3cncc(Cl)c3n([C@H](c3ccccc3)C3CCOCC3)c2c1` [Example 34, 10-Chloro-5-(dimethyl-1H-1,2,3-triazol-5-yl)-8-[(S)-oxan-4-yl(phenyl)methyl]-3,8,12-triazatricyclo[7.4.0.0^2,^7]trideca-1(13),2(7),3,5,9,11-hexaene], the IC50 is less than 0.01 µM.

The term IC50 denotes the concentration needed to halve the response being measured.
